The RepoRT retention time repository

Test: Agilent ZORBAX 300 SB-C18, 150 × 1 mm, 3.5 µm; A: water + 0.01% heptafluorobutyric acid; B: acetonitrile + 0.01% heptafluorobutyric acid; gradient (min/%B) 0/0 100/90
Conditions: stereoisomer not certain
Compound `CCNC(=S)NNC(=S)NCc1ccccc1` has an LC retention time of 10.9 min. `CC(C)Cc1ccc(C(C)C(=O)NCCCn2c3ccccc3c3ccccc32)cc1` (centres undefined) showed an LC retention time of 20.1 min. `Cc1ccc(N)cc1` gave an LC retention time of 7.62 min. `c1coc(C2=NCCN2)c1` showed an LC retention time of 6.73 min. `OC1CCNCC1` showed an LC retention time of 2.8 min. Work on `CCn1c(=O)n(CC)c2cc(C=O)ccc21` yielded an LC retention time of 10.2 min. With `C=CCNC1CCCCC1` the LC retention time was 7.93 min. Compound `CC(c1ccccc1)C(N)C(=O)O` (centres undefined) has an LC retention time of 7.08 min. For `Nc1ccccc1CO`, the LC retention time was 6.62 min. `CCn1cc(CCC(=O)O)c2ccccc21` gave an LC retention time of 12.4 min. With `O=c1[nH]c2ccccc2[nH]c1=O` the LC retention time was 6.56 min. `CCCCN(CC)CC` gave an LC retention time of 7.73 min. Compound `O=C(O)CCC(=O)Nc1ccc(Cc2ccc(NC(=O)CCC(=O)O)cc2)cc1` has an LC retention time of 9.35 min. `CC(N)CCCC(C)(C)O` (centres undefined) showed an LC retention time of 7.64 min. Compound `CCCCCCCCCCCCN(C)C` has an LC retention time of 13.7 min. `Cc1cc(C)nc(N=C(N)Nc2cccc3ccccc23)n1` gave an LC retention time of 10.5 min. Compound `CCCCN1CNC(=S)NC1` has an LC retention time of 7.45 min. Work on `C=CC[n+]1ccc2ccccc2c1` yielded an LC retention time of 7.67 min. In the case of `Oc1ccc2c(c1)C13CCCCC1(O)C(C2)NCC3` (centres undefined), the LC retention time is reported as 8.57 min. For `CCn1c2ccccc2c2cc(C(=O)O)ccc21`, the LC retention time was 13.5 min. Compound `Cc1nc2ccccc2nc1CN1C(=O)C2CC=CCC2C1=O` (centres undefined) has an LC retention time of 11.9 min. Compound `CN1CCC(OC(=O)Cc2ccccc2)CC1` has an LC retention time of 8.85 min. For `COc1c(C)cccc1C(=O)NC(CC(C)C)C(N)=O` (centres undefined), the LC retention time was 11.2 min. With `Cc1ccccc1N(C)C` the LC retention time was 7.62 min. `CN(C)CCN(Cc1ccccc1)c1ccccn1` gave an LC retention time of 10.1 min. `CCOc1ccccc1CNC(N)=O` showed an LC retention time of 9.32 min. In the case of `NC(=O)c1cc2c(ccc3ccccc32)oc1=O`, the LC retention time is reported as 11.1 min. For `O=C(O)C1(c2ccccc2)CCCCN1` (centres undefined), the LC retention time was 6.67 min. Compound `Cn1c(=O)c2n[nH]c(=S)nc2n(C)c1=O` has an LC retention time of 7.17 min. With `CC1=NCCC1` the LC retention time was 4.35 min. In the case of `CCN(CC)CCCO`, the LC retention time is reported as 6.01 min. Work on `CNCCCN1c2ccccc2CCc2ccccc21` yielded an LC retention time of 11.5 min. For `CCOc1ccc(N2C(=O)CC(N(Cc3ccc4c(c3)OCO4)C(C)=O)C2=O)cc1` (centres undefined), the LC retention time was 12.5 min. With `CCCN` the LC retention time was 4.83 min. Work on `Cc1ccc(C(=O)C=Cc2ccco2)cc1` yielded an LC retention time of 15.1 min. For `CN1C(=O)C(CC(=O)NC2CCCCC2)N(C)C1=O` (centres undefined), the LC retention time was 8.55 min. `CCCc1cc2c(cc1N)OCO2` gave an LC retention time of 9.27 min. `NC(=O)c1ccc[n+](C2OC(COP(=O)(O)O)C(O)C2O)c1` (centres undefined) gave an LC retention time of 1.78 min. `CC1=NC(=O)NC(c2ccccc2)C1C(=O)OCc1ccccc1` (centres undefined) showed an LC retention time of 12.6 min. For `CC(C)c1ccc(CC(NC(=O)c2ccccc2)C(=O)NCC(=O)O)cc1` (centres undefined), the LC retention time was 12.5 min. Compound `S=C(NCCc1c[nH]c2ccccc12)Nc1ccccc1` has an LC retention time of 13.2 min. Compound `c1ccc2nccnc2c1` has an LC retention time of 8.94 min. `O=C(O)C1CCCCC1C(=O)Nc1ccc2c(c1)CCCC2` (centres undefined) showed an LC retention time of 13.8 min. `S=C1N=C2CCCCC2C2(CCCCC2)N1` (centres undefined) gave an LC retention time of 11.6 min. With `Cc1ccc(C(=O)Nc2ccc3[nH]c4c(c3c2)CCCC4)cc1` the LC retention time was 15.1 min. Work on `CCCc1cc(C(N)=O)ccn1` yielded an LC retention time of 7.11 min. For `O=C(CCc1ccccc1)NN=Cc1ccccc1O`, the LC retention time was 13.3 min. For `CSC1=NCCN1`, the LC retention time was 5.98 min. Compound `Cc1cccc(Nc2cc(C)nc3ccccc23)c1` has an LC retention time of 10.4 min. `Cc1cc(C=O)c(C)n1C1CCCCC1` showed an LC retention time of 14.4 min. For `CC1CCCCN1C(=S)NCc1ccccc1` (centres undefined), the LC retention time was 14.3 min. `CN(C)CCCNC(=O)C(=O)NC1CC1` showed an LC retention time of 6.89 min. With `CCCCN1CNC(=S)N(CCc2ccccc2)C1` the LC retention time was 13.8 min. With `NCC(=O)CCC(=O)O` the LC retention time was 3.25 min. For `CCCCc1ccc(NC=CC(=O)c2ccc(C)cc2)cc1`, the LC retention time was 21.5 min. `CCCCCCCCCCC(N)=O` gave an LC retention time of 15.3 min. Work on `CCCCCC[N+](C)(C)Cc1ccccc1` yielded an LC retention time of 10.7 min. Work on `Cc1n[nH]c(=O)nc1NC1CCCCC1` yielded an LC retention time of 8.28 min. For `CCN(CC)CC(=O)Nc1c(C)cc(C)cc1C`, the LC retention time was 9.28 min. Work on `COc1ccc(N2CCCC2=O)cc1` yielded an LC retention time of 9.78 min. Compound `CC(C)(C)C(=O)NNc1ccccc1` has an LC retention time of 10.5 min. Work on `O=C(CCN1C(=O)c2ccccc2C1=O)NCc1ccco1` yielded an LC retention time of 10.2 min. `Cc1ccc(C=NNC(N)=S)cc1` showed an LC retention time of 10.8 min. With `CCCN1CCC(=O)CC1` the LC retention time was 6.66 min. Work on `c1ccc(Cc2nn[nH]n2)cc1` yielded an LC retention time of 8.45 min. In the case of `Nc1cccc(N)c1`, the LC retention time is reported as 5.85 min. With `Cc1cc2cc(N)ccc2n1C` the LC retention time was 8.33 min. Work on `Nc1ncccn1` yielded an LC retention time of 5.83 min. Work on `Cc1ccc(C)c(NC(=O)C(=O)NCC(C)O)c1` (centres undefined) yielded an LC retention time of 10.5 min. `O=c1[nH]c2cc[nH]c(=O)c2[nH]1` showed an LC retention time of 2.62 min. In the case of `CC1=NC(=Cc2ccccc2)C(=O)O1`, the LC retention time is reported as 9.16 min. `Cc1ccc2c(c1)C1CN(C)CCC1N2C(=O)CN1CCCCC1` (centres undefined) gave an LC retention time of 7.91 min. Compound `O=S(=O)(O)CCN1CCOCC1` has an LC retention time of 1.67 min. With `CNC(=S)N1CCCCC1` the LC retention time was 8.86 min. `Cc1[nH]c2ccccc2c1C=NN=Cc1c(C)[nH]c2ccccc12` gave an LC retention time of 12 min. `c1ccc2c(c1)Cc1cc3ccccc3nc1-2` gave an LC retention time of 11.4 min. `Cc1nn(CC(=O)NCCO)c(=O)c2ccccc12` showed an LC retention time of 7.72 min. Work on `NCCCCCCCCCCN` yielded an LC retention time of 7.57 min. Work on `CC1=CC(=O)C2CC1C2(C)C` (centres undefined) yielded an LC retention time of 11.4 min. Work on `c1ccc(Cn2c3ccccc3c3ccccc32)cc1` yielded an LC retention time of 18.8 min. `COc1ccc(Oc2ccc(-n3c(C)ccc3C)cc2)cc1` gave an LC retention time of 18.9 min. In the case of `O=C(CCCCCN1C(=O)c2ccccc2C1=O)Nc1cccc(C(=O)O)c1`, the LC retention time is reported as 11.6 min. `CCCNCCN` gave an LC retention time of 7 min. For `CNCc1cccc(OC)c1OC`, the LC retention time was 7.9 min. `Cc1ccc(C=Cc2nnc(-c3ccccc3C)o2)cc1` showed an LC retention time of 18.1 min. `c1ccc(-c2ccc3ccccc3n2)cc1` showed an LC retention time of 13.1 min. Work on `CCN(CC)CCn1cnc2c1c(=O)n(C)c(=O)n2C` yielded an LC retention time of 7.8 min. Compound `CC(=O)Nc1c(C)cc(C)cc1NC(=O)c1cc2ccccc2o1` has an LC retention time of 12.5 min. Compound `O=C1CNCC(=O)N1CCc1ccccc1` has an LC retention time of 9.32 min. `CC(=O)Oc1ccc2c(c1)cc(C)n2C` gave an LC retention time of 13.3 min. Compound `NC1=NC(=Nc2ccc3c(c2)OCCO3)c2ccccc21` has an LC retention time of 9.45 min. For `Cc1ccc2c(c1)C1CN(C)CCC1N2C(=O)CCCCCN1C(=O)c2ccccc2C1=O` (centres undefined), the LC retention time was 10.6 min. Compound `CCCc1c(O)c2ccccc2[nH]c1=O` has an LC retention time of 9.59 min. For `COc1ccc(-c2cc(=O)c3cc(C)cc(C)c3o2)cc1OC`, the LC retention time was 15.2 min. With `CCNC(=O)c1ccc(CN2CCc3ccccc3C2)cc1` the LC retention time was 8.52 min. `O=CC1CCN(Cc2ccccc2)CC1` gave an LC retention time of 7.84 min. In the case of `Nc1ccc(N)cc1`, the LC retention time is reported as 4.51 min. Work on `CN(C)CCCNCCCN` yielded an LC retention time of 7.35 min. For `CC(C)NC(=O)C(=O)NCCCO`, the LC retention time was 6.9 min.
